A word on the kinact: it is the maximal first-order rate at which the target is inactivated.

For assay [1], the target named is T1, hOAT (Homo sapiens, UniProt P04181).
T1 construct: made in house
T1 sequence (P04181 36-439 limits assumed): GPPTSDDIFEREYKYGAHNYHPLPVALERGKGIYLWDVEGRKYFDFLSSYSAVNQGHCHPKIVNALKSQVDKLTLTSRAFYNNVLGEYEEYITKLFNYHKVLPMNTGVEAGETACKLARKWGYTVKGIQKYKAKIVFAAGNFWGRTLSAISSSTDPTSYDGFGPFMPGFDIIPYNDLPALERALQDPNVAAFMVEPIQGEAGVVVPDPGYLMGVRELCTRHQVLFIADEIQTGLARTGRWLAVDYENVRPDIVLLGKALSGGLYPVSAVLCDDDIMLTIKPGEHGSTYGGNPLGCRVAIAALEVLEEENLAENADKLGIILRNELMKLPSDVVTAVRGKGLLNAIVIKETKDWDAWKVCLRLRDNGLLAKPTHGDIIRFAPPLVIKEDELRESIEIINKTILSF
Briefly: coupled enzyme hOAT assay. The format is biochemical. On the procedure: With inhibitors in hand, we tested for activity in a previously developed coupled enzyme hOAT assay.^9,21
hOAT and PYCR1 were expressed, grown, and purified according to literature procedures.^22,23 GABA-AT was isolated from pig brains and purified according to literature procedure.^16 Coupled enzyme assays for GABA-AT and hOAT were carried out according to previous procedures.^15,21 All chemical were purchased from Sigma Aldrich, Acros Organics, or Matrix Scientific and used without further purification. Anhydrous solvents (THF, CH2Cl2, DMF) were purified before use by passing through a column composed of activated alumina and a supported copper redox catalyst. Yields refer to chromatographically and spectroscopically (^1H-NMR) homogeneous material. Analytical thin-layer chromatography (TLC) was performed using Merck Silica Gel 60 Å F-254 precoated plates (0.25 mm thickness), and components were visualized by ultraviolet light (254 nm) and/or ceric ammonium molybdate stain. Flash column chromatography was performed on a Teledyne Combiflash Rf Plus automated flash purification system with various Teledyne cartridges (4-80 g, 40-63 μm, 60 Å). Purifications were performed with hexanes and ethyl acetate unless otherwise noted. ^1H and ^13C NMR spectra were recorded on a Bruker Avance-III NMR spectrometer at 500 MHz and 126 MHz, respectively, in CDCl3 or D2O. Chemical shifts were reported in ppm, multiplicities are indicated by s=singlet, d=doublet, t=triplet, q=quartet, sep=septet, dd=doublet of doublet, dt=doublet of triplet, m=multiplet, br=broad resonance. Coupling constants were reported in Hz. High resolution mass spectral data were obtained on an Agilent 6210 LC-TOF spectrometer in the positive ion mode using electrospray ionization with an Agilent G1312A HPLC pump and an Agilent G1367B autoinjector at the Integrated Molecular Structure Education and Research Center (IMSERC), Northwestern University. Analytical HPLC was performed by using a reserved-phase Agilent Infinity 1260 HPLC with a Phenomenex Kintex C-18 column (50×2.1 mm, 2.6 μm), detecting with UV absorbance at 254 nm.

Assay [2] addresses T1, hOAT. As to conditions: earlier work, cited from earlier work.
The subject of another assay is HCC. As to conditions: HCC infected/bearing mice; cited from earlier work.

Where two headings read alike, the source gives them in different places.

Consider `N[C@H]1C[C@@H](C(=O)O)CC1=C(C(F)(F)F)C(F)(F)F` [Compound 1, (1S,3S)-3-amino-4-(perfluoropropan-2-ylidene)cyclopentane-1-carboxylic acid], for which, at hOAT [1], the kinact is 0.00133 s⁻¹ and the kinact/KI was 25.7 M⁻¹ s⁻¹. This compound also displayed a Ki on hOAT [1] (hOAT inactivation) of 53 µM. On hOAT [2], the “inhibition/inactivation of human OAT (in words)” value is “potent inhibitor”. Moreover, the “inhibition/inactivation of human OAT (in words)” value at hOAT [2] (listed as (1S,3 S)-3-amino-4-(perfluoropropan-2-ylidene)cyclopentane-1-carboxylic acid) was “potent inactivator”. In the assay on HCC, the “HCC marker protein alpha-fetoprotein” value is recorded as “decrease” and the tumor size entry was “decrease”.

Compound `COC(=O)/C(=C1\C[C@H](C(=O)O)C[C@@H]1N)C(F)(F)F.Cl` [Compound 10, (1S,3S,Z)-3-amino-4-(1,1,1-trifluoro-3-methoxy-3-oxopropan-2-ylidene)cyclopentane-1-carboxylic acid hydrochloride] returned a Ki on hOAT [1] (hOAT inactivation) of 130 µM. At hOAT [1] (hOAT inactivation, read-out: kinact (converted)), the kinact is 0.00167 s⁻¹. The kinact/KI at hOAT [1] (hOAT inactivation, read-out: kinact/KI (converted)) is 12.2 M⁻¹ s⁻¹. The “activity against hOAT (in words)” value on hOAT [1] (hydrochloride) was “similarly potent inhibitor of hOAT”; on hOAT [1] (listed as (1S,3S,Z)-3-amino-4-(1,1,1-trifluoro-3-methoxy-3-oxopropan-2-ylidene)cyclopentan, hydrochloride), “active”.

Regarding `COC(=O)/C(=C1/C[C@H](C(=O)O)C[C@@H]1N)C(F)(F)F.Cl` [Compound 11, (1S,3S,E)-3-amino-4-(1,1,1-trifluoro-3-methoxy-3-oxopropan-2-ylidene)cyclopentane-1-carboxylic acid hydrochloride], on hOAT [1], the “activity against hOAT (in words)” value was “inactive”. The compound also came in with a Ki on hOAT [1] (hOAT inactivation) of no less than 2000 µM.
